# Laboratory results taken from article PMC9995496, “A screen for MeCP2-TBL1 interaction inhibitors using a luminescence-based assay” (Scientific Reports, 2023).
# Target: T1, MeCP2-TBL1 interaction (MeCP2-SmBiT / TBL1-LgBiT) (Mus musculus, UniProt Q9QXE7)
# T1 construct: expressed in transfected cells; crude lysate used as a cell-free assay
# T1 sequence (Q9QXE7 166-527): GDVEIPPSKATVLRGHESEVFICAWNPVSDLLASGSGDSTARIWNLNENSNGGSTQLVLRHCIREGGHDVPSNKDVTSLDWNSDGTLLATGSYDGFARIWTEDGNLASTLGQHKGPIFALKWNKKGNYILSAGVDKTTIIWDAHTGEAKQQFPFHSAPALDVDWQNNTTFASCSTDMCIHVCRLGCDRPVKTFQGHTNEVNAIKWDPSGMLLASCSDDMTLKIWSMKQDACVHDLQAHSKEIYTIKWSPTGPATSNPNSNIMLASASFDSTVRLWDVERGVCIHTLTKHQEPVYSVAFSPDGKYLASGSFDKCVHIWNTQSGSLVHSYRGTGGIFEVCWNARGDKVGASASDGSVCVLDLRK
# Test: MeCP2-TBL1 NanoLuc luciferase complementation assay (cell-free, extracts of transfected HEK293 cells);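 further: each compound tested at 20 µM final concentration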
# Type: binding, human
# Details: primary screen of Asinex library, single well per compound
# Outline: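 Cell-free split NanoLuc: lysate of HEK293 cells co-expressing the MeCP2 C-terminal half-SmBiT and TBL1 WD domain-LgBiT, mixed 1:1 with furimazine. After 30 min at room temperature, luminescence was plate-median normalized.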
row,Compound,Inhibition percent
1,CN1CCN(c2cc(C(=O)N3CCC(O)(CN4CCN(c5ccccc5)CC4)C3)ccn2)CC1 (stereo not shown) [BDH_32365527],-1.97
2,CC(C)(NC(=O)Cc1cccc(F)c1)C(=O)N1CCCC2(CC1)CN(c1ccccc1)C(=O)O2 (stereo not shown) [BDH_32367867],2.91
3,CC(=O)N1CCC(Cc2ccc(F)cc2)(C(=O)N2CCCC(Cc3cccc(C)n3)C2)CC1 (stereo not shown) [BDH_32369388],-2.67
4,O=C(c1cccc(Oc2ncccn2)c1)N1CCCC2(CC1)CN(c1cccc(F)c1)C(=O)O2 (stereo not shown) [BDH_32369515],-4.84
5,CNC(=O)C1CN(C(=O)C2(C)CCN(C(=O)c3ccccc3)CC2)CCN1Cc1ccccc1 (stereo not shown) [BDH_32370904],-3.09
6,Cc1ccc(C(=O)N2C[C@@H](c3ccc(F)cc3)[C@@]3(CCCC(=O)N3)C2)cc1NCc1ccccn1 [BDH_32371225],-3.76
7,CN1C(=O)C2(CCN(C(=O)c3cccc(Nc4ncccn4)c3)CC2)CC1Cc1ccc(F)cc1 (stereo not shown) [BDH_32371589],8.79
8,O=C1COC2(CCCN(C(=O)c3ccccc3Cn3ccnc3)CC2)CN1CCc1ccccc1 (stereo not shown) [BDH_32371928],-2.75

# Next, values leading:
row,Inhibition percent,Compound
1,0.18,Cc1cc(Oc2ccccc2F)nc(C2CCCCN2C(=O)c2ccnc(-c3cncnc3)c2)n1 (stereo not shown) [BDH_32366371]
2,-1.96,Cc1cccc(Cc2cccc(C3CCCN(C(=O)c4ccnc(-c5cncnc5)c4)C3)n2)c1 (stereo not shown) [BDH_32367369]
3,-2.43,COc1ccccc1Oc1cccc(C2CCN(C(=O)c3ccc(-c4cncnc4)nc3)CC2)n1 [BDH_32370065]

# Same assay, conditions: primary screen of the Asinex library, sheet "Sargen output Asinex library", one well per compound
row,Compound,Inhibition percent
1,Cc1cc(CC2CCN(C(=O)C3(C)CCN(C(=O)Cc4cccc(F)c4)CC3)CC2)ccn1 [BDH_32366782],4.29%
2,CC(=O)N[C@@]12CN(C)CC[C@@H]1[C@@H](c1ccccc1)N(C(=O)c1cccc(Oc3ncccn3)c1)C2 [BDH_32367667],-3.64%
3,Cc1nccn1Cc1cccc(C(=O)N2[C@H](Cc3ccccc3)C[C@]3(C)NC(=O)CCC[C@H]23)c1 [BDH_32370660],-3.96%
4,O=C1OC2(CCCN(C(=O)c3ccnc(N4CCOCC4)c3)CC2)CN1CCc1ccccc1 (stereo not shown) [BDH_32370969],-1.73%
5,CNC(=O)c1cc(C)nc(C2(C)CCN(C(=O)c3ccc(C)c(NCc4ccccn4)c3)CC2)n1 [BDH_32371078],4.95%

# Now from value to compound:
row,Inhibition percent,Compound
1,2.72%,Cn1cc(-c2cccc(C(=O)N3CCC(c4cccc(Cc5ccc(F)cc5)n4)CC3)n2)cn1 [BDH_32365359]
2,7.56%,Cn1cc(-c2cccc(C(=O)N3CCCC(c4cccc(Cc5ccc(F)cc5)n4)C3)n2)cn1 (stereo not shown) [BDH_32365360]
3,-5.24%,COc1cccc(Oc2cc(C)nc(C3CCCCN3C(=O)c3cccc(-n4cnnc4)c3)n2)c1 (stereo not shown) [BDH_32365761]
4,-2.06%,Cc1cc(Oc2ccc(F)cc2)nc(C2CCN(C(=O)c3cncc(-c4cncnc4)c3)CC2)n1 [BDH_32369058]
5,0.98%,Cc1cc(Oc2ccccc2F)nc(C2CCN(C(=O)c3cncc(-c4cncnc4)c3)CC2)n1 [BDH_32370406]
6,1.17%,COc1ccc(C(=O)N2CCCC(Cc3cn4ccnc4cn3)CC2)cc1OCc1ccccn1 (stereo not shown) [BDH_32371251]

# Same assay, conditions: primary screen of the Asinex library, sheet "Sargen output Asinex library", one well per compound, Batch Ref. 1
row,Compound,Inhibition percent
1,COc1cccc(Nc2ncccc2C(=O)N2CCOCC(Cc3nccn4cccc34)C2)c1 (stereo not shown) [BDH_32366009],-5.94%
2,O=C1CCCN1CCOc1cccc(C(=O)N2C3CCC2CC(Cc2cnc4[nH]ccc4c2)C3)c1 (stereo not shown) [BDH_32367285],-0.20%
3,Cc1ccc(C2(C(=O)N3CCC(CC(=O)Nc4ccc5nccnc5c4)CC3)CCOCC2)cc1 [BDH_32368328],-1.52%

# Continued, values first:
row,Inhibition percent,Compound
1,4.12%,Cn1cc(-c2ccc(C(=O)N3CCCC(c4cccc(Cc5ccc(F)cc5)n4)C3)cn2)cn1 (stereo not shown) [BDH_32365364]
2,1.59%,Cn1cc(-c2cc(C(=O)N3CCC(c4cncc(-c5cccc(Cl)c5)n4)CC3)ccn2)cn1 [BDH_32366963]
3,1.94%,Cc1cc(Oc2ccccc2F)nc(C2CCN(C(=O)c3cccc(-c4cncnc4)n3)CC2)n1 [BDH_32368986]
